Values after ≈ are worked out from the molar mass of the structure shown. Read-outs that look alike come from different tables or passages of the source. Residues, ends and D or L forms follow the SMILES beside them.
What was measured:
[1] = test system: S. aureus 3108(R) (MRSA 3108); assay type: cell-based, Staphylococcus aureus; details: multidrug-resistant strain; 1% peptone media, 16 h at 37 °C
[2] = test system: human red blood cells (hRBCs); experiment: Haemolytic activity; assay type: cell-based
Method: Peptide-induced lysis of human red blood cells (hRBCs) was determined as follows. Fresh hRBCs were washed 2–3 times with phosphate-buffered saline (PBS) by centrifugation for 5 min at 2500 rpm at 4 °C. Peptides in PBS were incubated with 4% (v/v) hRBCs for 1 h at 37 °C. Samples were then centrifuged for 5 min at 1000 × g. The absorbance of the supernatant at 405 nm was used as a measure of haemolysis. As a positive control, 100% haemolysis was obtained by treating hRBCs with 0.1% Triton X-100.

[3] = test system: Acinetobacter baumannii CCARM 12035 (MDRAB 12035); assay type: cell-based; details: multidrug-resistant strain; 1% peptone media, 16 h at 37 °C
Excerpt: (§1) Four Gram-negative bacteria species (Escherichia coli KCTC 1682, Acinetobacter baumannii KCTC 2508, Pseudomonas aeruginosa KCTC 1637 and Salmonella typhimurium KCTC 1926) and three Gram-positive bacteria species (Staphylococcus aureus KCTC 1621, Bacillus subtilis KCTC 3028 and Staphylococcus epidermidis KCTC 1917) were procured from the Korean Collection for Type Cultures (KCTC). Multi-drug-resistant Gram-negative bacteria (Salmonella typhimurium CCARM 8003 and 8007, Escherichia coli CCARM 1229 and 1238, Pseudomonas aeruginosa CCARM 2002 and 2095 and Acinetobacter baumannii CCARM 12035 and 12036) were obtained from the Culture Collection of Antibiotic-Resistant Microbes (CCARM). To determine MICs, bacteria were cultured in Luria-Bertani (LB) medium for overnight at 37 °C. An aliquot of the culture was incubated in 1% peptone media at 37 °C until mid-log phase. 100 μl of serial 2-fold diluted peptides were treated in 96 well plates and added to 100 μl of 2 × 10^6 CFU/ml bacterial suspensions in 1% peptone media for 16 h at 37 °C.

[4] = test system: Salmonella typhimurium CCARM 8003 (MDRST 8003); assay type: cell-based; details: multidrug-resistant strain; 1% peptone media, 16 h at 37 °C
Excerpt: as §1

[5] = test system: Bacillus subtilis KCTC 3028; assay type: cell-based
Excerpt: as §1

[6] = test system: Pseudomonas aeruginosa CCARM 2095 (MDRPA 2095); assay type: cell-based; details: multidrug-resistant strain; 1% peptone media, 16 h at 37 °C
Excerpt: as §1

[7] = test system: Escherichia coli CCARM 1229 (MDREC 1229); assay type: cell-based; details: multidrug-resistant strain; 1% peptone media, 16 h at 37 °C
Excerpt: as §1

[8] = test system: Escherichia coli CCARM 1238 (MDREC 1238); assay type: cell-based; details: multidrug-resistant strain; 1% peptone media, 16 h at 37 °C
Excerpt: as §1

[9] = test system: Pseudomonas aeruginosa KCTC 1637; assay type: cell-based
Excerpt: as §1

[10] = test system: Salmonella typhimurium CCARM 8007 (MDRST 8007); assay type: cell-based; details: multidrug-resistant strain; 1% peptone media, 16 h at 37 °C
Excerpt: as §1

[11] = test system: Pseudomonas aeruginosa CCARM 2002 (MDRPA 2002); assay type: cell-based; details: multidrug-resistant strain; 1% peptone media, 16 h at 37 °C
Excerpt: as §1

[12] = test system: Acinetobacter baumannii CCARM 12036 (MDRAB 12036); assay type: cell-based; details: multidrug-resistant strain; 1% peptone media, 16 h at 37 °C
Excerpt: as §1

[13] = test system: Staphylococcus aureus KCTC 1621; assay type: cell-based
Excerpt: as §1

[14] = test system: Gram-negative bacteria (E. coli, A. baumannii, P. aeruginosa, S. typhimurium); assay type: cell-based
Excerpt: as §1

[15] = test system: Gram-positive bacteria (S. aureus, B. subtilis, S. epidermidis); assay type: cell-based
Excerpt: as §1

[16] = test system: Acinetobacter baumannii KCTC 2508; assay type: cell-based
Excerpt: as §1

[17] = test system: Escherichia coli KCTC 1682; assay type: cell-based
Excerpt: as §1

[18] = test system: Staphylococcus epidermidis KCTC 1917; assay type: cell-based
Excerpt: as §1

[19] = test system: Salmonella typhimurium KCTC 1926; assay type: cell-based
Excerpt: as §1

[20] = test system: S. aureus 3126(R) (MRSA 3126); assay type: cell-based, Staphylococcus aureus; details: multidrug-resistant strain; 1% peptone media, 16 h at 37 °C
[21] = test system: S. aureus 3089(R) (MRSA 3089); assay type: cell-based, Staphylococcus aureus; details: multidrug-resistant strain; 1% peptone media, 16 h at 37 °C

Row | SMILES | MIC, MRSA 3108 [1] [µM] | MIC, MDRAB 12035 [3] [µM] | MIC, MDRST 8003 [4] [µM] | MIC, MDRPA 2095 [6] [µM] | MIC, MDREC 1229 [7] [µM] | MIC, MDREC 1238 [8] [µM] | MIC, MDRST 8007 [10] [µM] | MIC, MDRPA 2002 [11] [µM] | MIC, MDRAB 12036 [12] [µM] | MIC, MRSA 3126 [20] [µM] | MIC, MRSA 3089 [21] [µM] | also measured
1 | CC[C@H](C)[C@H](NC(=O)CNC(=O)[C@H](CCC(N)=O)NC(=O)[C@H](Cc1ccccc1)NC(=O)[C@@H](NC(=O)[C@H](CCCCN)NC(=O)[C@H](CCCCN)NC(=O)[C@H](CC(C)C)NC(=O)[C@H](C)NC(=O)[C@H](CC(N)=O)NC(=O)[C@H](CC(C)C)NC(=O)CN)C(C)C)C(=O)N[C@@H](Cc1c[nH]cn1)C(=O)N[C@@H](CCCCN)C(=O)N[C@@H](C)C(=O)N[C@H](C(=O)N[C@@H](CCCCN)C(=O)N[C@@H](CCCCN)C(=O)N[C@H](C(=O)N[C@@H](CC(N)=O)C(=O)N[C@@H](CC(N)=O)C(=O)N[C@@H](Cc1c[nH]cn1)C(=O)N[C@H](C(=O)N[C@@H](CCC(N)=O)C(=O)O)C(C)C)[C@@H](C)CC)[C@@H](C)CC [Ps-K14-K18] (H-GLNALKKVFQGIHKAIKKINNHVQ-OH) | 4 (≈ 10.8 µg/mL) | 2 (≈ 5.4 µg/mL) | 4 (≈ 10.8 µg/mL) | 4 (≈ 10.8 µg/mL) | 2 (≈ 5.4 µg/mL) | 2 (≈ 5.4 µg/mL) | 4 (≈ 10.8 µg/mL) | 2 (≈ 5.4 µg/mL) | 2 (≈ 5.4 µg/mL) | 4 (≈ 10.8 µg/mL) | 8 (≈ 21.6 µg/mL) | MHC (minimal peptide concentration that produces haemolysis) ([2]; red cells of human, 1 h): 100 µM; haemolysis at 100 μM ([2]; red cells of human, 1 h, 100): 1.1%; MIC, B. subtilis ([5]; KCTC 3028, 16 h): 8 µM (≈ 21.6 µg/mL); MIC, P. aeruginosa ([9]; KCTC 1637, 16 h): 2 µM (≈ 5.4 µg/mL); MIC, S. aureus ([13]; KCTC 1621, 16 h): 8 µM (≈ 21.6 µg/mL); Average MIC, Gram-negative ([14]; 16 h): 1.75 µM; Average MIC, Gram-positive ([15]; 16 h): 10.67 µM; MIC, A. baumannii ([16]; KCTC 2508, 16 h): 2 µM (≈ 5.4 µg/mL); MIC, E. coli ([17]; KCTC 1682, 16 h): 1 µM (≈ 2.7 µg/mL); MIC, S. epidermidis ([18]; KCTC 1917, 16 h): 16 µM (≈ 43.2 µg/mL); MIC, S. typhimurium ([19]; KCTC 1926, 16 h): 2 µM (≈ 5.4 µg/mL)
2 | CC[C@H](C)[C@H](NC(=O)[C@H](C)NC(=O)[C@H](CCC(=O)O)NC(=O)[C@H](Cc1c[nH]cn1)NC(=O)[C@@H](NC(=O)[C@@H]1CCCN1C(=O)[C@H](CCC(N)=O)NC(=O)[C@H](Cc1ccccc1)NC(=O)[C@@H](NC(=O)[C@H](CCCCN)NC(=O)[C@H](CCCCN)NC(=O)[C@H](CC(C)C)NC(=O)[C@H](C)NC(=O)[C@H](CC(N)=O)NC(=O)[C@H](CC(C)C)NC(=O)CN)C(C)C)[C@@H](C)CC)C(=O)N[C@@H](CCCCN)C(=O)N[C@@H](CCCCN)C(=O)N[C@H](C(=O)N[C@@H](CC(N)=O)C(=O)N[C@@H](CC(N)=O)C(=O)N[C@@H](Cc1c[nH]cn1)C(=O)N[C@H](C(=O)N[C@@H](CCC(N)=O)C(=O)O)C(C)C)[C@@H](C)CC [Ps-K18-P] (H-GLNALKKVFQPIHEAIKKINNHVQ-OH) | 64 (≈ 175 µg/mL) | 16 (≈ 43.8 µg/mL) | 16 (≈ 43.8 µg/mL) | 16 (≈ 43.8 µg/mL) | 32 (≈ 87.7 µg/mL) | 16 (≈ 43.8 µg/mL) | 16 (≈ 43.8 µg/mL) | 16 (≈ 43.8 µg/mL) | 16 (≈ 43.8 µg/mL) | >64 | 64 (≈ 175 µg/mL) | haemolysis at 400 μM ([2]; 400 μM peptide, 4% hRBCs, PBS, 1 h at 37 °C, 100% = 0.1% Triton X-100): 0.1%; MHC (minimal peptide concentration that produces haemolysis) ([2]; 4% (v/v) hRBCs in PBS, 1 h at 37 °C, absorbance 405 nm, printed in both Gram-negative and Gram-positive sections): 400 µM; MIC, B. subtilis ([5]; standard strain KCTC 3028, 1% peptone media, 16 h at 37 °C, three independent experiments in triplicate, SD 14.0%): 64 µM (≈ 175 µg/mL); MIC, P. aeruginosa ([9]; standard strain KCTC 1637, 1% peptone media, 16 h at 37 °C, three independent experiments in triplicate, SD 14.0%): 8 µM (≈ 21.9 µg/mL); MIC, S. aureus ([13]; standard strain KCTC 1621, 1% peptone media, 16 h at 37 °C, three independent experiments in triplicate, SD 14.0%): 64 µM (≈ 175 µg/mL); Average MIC, Gram-negative ([14]; average over the four Gram-negative standard strains): 14 µM; Average MIC, Gram-positive ([15]; average over the three Gram-positive standard strains): 64 µM; MIC, A. baumannii ([16]; standard strain KCTC 2508, 1% peptone media, 16 h at 37 °C, three independent experiments in triplicate, SD 14.0%): 16 µM (≈ 43.8 µg/mL); MIC, E. coli ([17]; standard strain KCTC 1682, 2-fold dilutions, 1% peptone media, 2 × 10^6 CFU/ml suspension, 16 h at 37 °C, three independent experiments in triplicate, SD 14.0%): 16 µM (≈ 43.8 µg/mL); MIC, S. epidermidis ([18]; standard strain KCTC 1917, 1% peptone media, 16 h at 37 °C, three independent experiments in triplicate, SD 14.0%): 64 µM (≈ 175 µg/mL); MIC, S. typhimurium ([19]; standard strain KCTC 1926, 1% peptone media, 16 h at 37 °C, three independent experiments in triplicate, SD 14.0%): 16 µM (≈ 43.8 µg/mL)

Source: PMC5431190, “Investigation of cationicity and structure of pseudin-2 analogues for enhanced bacterial selectivity and anti-inflammatory activity” (Scientific Reports, 2017)
